Source: US8778966B2, “Quinolinone derivatives as PARP and tank inhibitors” (Janssen Pharmaceutica, NV, priority 2007, dated 2014)

Tests used:
HCT116 cells = assay: Mitotic arrest assay on HCT116 cells (phospho-histone H3 Ser10); format: cell-based, human; details: Homo sapiens, HCT-116, HCT116 cells; lowest active dose; read-out: Mitotic arrest HCT116 LAD (converted)
Procedure, shortened: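 Read-out is imaging of phospho-histone H3 Ser10 (Alexa Fluor 488) with Hoechst nuclear counting, after 6 h compound exposure at 37 °C, DMSO ≤0.1%. LAD is the lowest dose at which the blank-corrected value over SD exceeds 5; triplicates, low-count wells excluded.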

tubulin = assay: Tubulin polymerization assay; format: biochemical; parameters: key: a compound showing 0 to 50% inhibition at 20 μM is reported as score 1; Score 2 compounds are defined as compound showing more than 50% inhibition at 20 μM and less than 50% inhibition at 5 μM; a compound showing more than 50% inhibition at 5 μM is reported as score 3; details: tested at 20 μM and 5 μM
Procedure, shortened: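 Cytoskeleton kit tubulin was run in a 10 µl final volume at 37 °C, with fluorescence read every minute for 1 h. Polymerization was taken as the maximum slope (4-point linear regression) and expressed as % of no-compound control. Compounds were tested at 20 µM, then at 5 µM if inhibition exceeded 50%, and scored by % inhibition.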

Structure (SMILES) | melting point | minimal effective concentration (HCT116 cells) | tubulin polymerisation score (tubulin)
CCc1cc2ccc([C@](C)(C#N)Cc3nc(OC)cc(OC)n3)cc2[nH]c1=O (single isomer, unassigned) [Compound 52] | 178 °C | 3 µM | 1 (a compound showing 0 to 50% inhibition at 20 μM is reported as score 1)
CCc1cc2ccc([C@@](C)(C#N)Cc3nc(OC)cc(OC)n3)cc2[nH]c1=O (single isomer, unassigned) [Compound 53] | 163 °C | 0.02 µM | 3 (a compound showing more than 50% inhibition at 5 μM is reported as score 3)
CCOP(=O)(OCC)c1cccc(CC(C)(C#N)c2ccc3cc(CC)c(=O)[nH]c3c2)c1 (stereo not shown) [Compound 50] | 80 °C | 0.316 µM | –
CCc1cc2ccc(C(C)(C#N)CCOc3ccc([N+](=O)[O-])cc3)cc2[nH]c1=O (stereo not shown) [Compound 54] | 216 °C | 0.1 µM | –

Second part, led by results:

melting point | Structure (SMILES) | minimal effective concentration (HCT116 cells) | tubulin polymerisation score (tubulin)
177 °C | CCc1cc2ccc([C@@](C)(C#N)Cc3ccccc3)cc2[nH]c1=O (single isomer, unassigned) [Compound 46] | 0.316 µM | 2
220 °C | CCc1cc2ccc(C(C)(C#N)Cc3nnsc3Cl)cc2[nH]c1=O (stereo not shown) [Compound 42] | 0.1 µM | 1 (a compound showing 0 to 50% inhibition at 20 μM is reported as score 1)
186 °C | CCc1cc2ccc(C(C)(C#N)Cc3cccc(Br)c3)cc2[nH]c1=O (stereo not shown) [Compound 49] | 0.1 µM | –
192 °C | CCc1cc2ccc(C(C)(C#N)Cc3cccc(C#N)c3)cc2[nH]c1=O (stereo not shown) [Compound 51] | 0.1 µM | –
> 260 °C | Cc1cc2ccc(C(C)(C#N)Cc3cc4ccccc4[nH]3)cc2[nH]c1=O (stereo not shown) [Compound 234] | 3 µM | –
